Source: patent publication US6274715A, “Tricyclic erythromycin derivatives” (priority 1997, dated 2001)
Values after ≈ are worked out from the molar mass of the structure shown.

Assays:
Format in all cases: cell-based
[1] = tested on: KLEBSIELLA PNEUMONIAE ATCC 8045; assay: In vitro antibacterial activity, MIC, BHI agar dilution; details: K. pneumoniae ATCC 8045, unit assumed
[2] = tested on: STREPTOCOCCUS PYOGENES PIU 2548; assay: as above; details: S. pyogenes PIU 2548, unit assumed
[3] = tested on: STAPHYLOCOCCUS AUREUS CMX 642A; assay: as above; details: S. aureus CMX 642A, unit assumed
CANDIDA ALBICANS CCH 442 = assay: as above; details: C. albicans CCH 442, unit assumed
[4] = tested on: PSEUDOMONAS AERUGINOSA K799/WT; assay: as above; details: P. aeruginosa K799/WT, unit assumed
[5] = tested on: PROVIDENCIA STUARTII CMX 640; details: P. stuartii CMX 640; BHI agar; unit assumed
ESCHERICHIA COLI KNK 437 = details: E. coli KNK 437; BHI agar; unit assumed
[6] = tested on: PSEUDOMONAS AERUGINOSA DPHD-2862; assay: In vitro antibacterial activity, MIC, BHI agar dilution; details: P. aeruginosa DPHD-2862, unit assumed
ESCHERICHIA COLI JUHL = details: E. coli JUHL; BHI agar; unit assumed
[7] = tested on: STAPHYLOCOCCUS AUREUS CMX 553; assay: In vitro antibacterial activity, MIC, BHI agar dilution; details: S. aureus CMX 553, unit assumed
ESCHERICHIA COLI DC-2 = assay: as above; details: E. coli DC-2, unit assumed
[8] = tested on: PSEUDOMONAS AERUGINOSA K799/61; assay: as above; details: P. aeruginosa K799/61, unit assumed
[9] = tested on: PSEUDOMONAS AERUGINOSA DPHD-5263; assay: as above; details: P. aeruginosa DPHD-5263, unit assumed
[10] = tested on: STREPTOCOCCUS PYOGENES EES61; assay: as above; details: S. pyogenes EES61, unit assumed
PSEUDOMONAS CEPACIA 296I = assay: as above; details: P. cepacia 296I, unit assumed
[11] = tested on: PSEUDOMONAS AERUGINOSA 5007; assay: as above; details: P. aeruginosa 5007, unit assumed
ESCHERICHIA COLI H560 = assay: as above; details: E. coli H560, unit assumed
ESCHERICHIA COLI SS = assay: as above; details: E. coli SS, unit assumed
[12] = tested on: STAPHYLOCOCCUS AUREUS A-5278; assay: as above; details: S. aureus A-5278, unit assumed
M[…] ATCC 4698 = assay: as above; details: M. luteus ATCC 4698, unit assumed
How it was run: (§1)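 MIC was read visually as the lowest drug concentration showing no growth, a slight haze or sparsely isolated colonies relative to a compound-free BHI plate. Plates held serial aqueous dilutions in BHI agar, were spot-inoculated with 1:100 (or 1:10) culture dilutions and incubated 20 to 24 hours at 35-37° C.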

EN[…] ATCC 8043 = assay: as above; details: E. faecium ATCC 8043, unit assumed
How it was run: as §1

M[…] ATCC 9341 = assay: as above; details: M. luteus ATCC 9341, unit assumed
How it was run: as §1

STR[…] 508 = assay: as above; details: S. agalactiae CMX 508, unit assumed
How it was run: as §1

[13] = tested on: STAPHYLOCOCCUS EPIDERMIDIS 3519; details: S. epidermidis 3519; BHI agar; unit assumed
[14] = tested on: STAPHYLOCOCCUS AUREUS A5177; assay: In vitro antibacterial activity, MIC, BHI agar dilution; details: S. aureus A5177, unit assumed
[15] = tested on: STREPTOCOCCUS BOVIS A-5169; assay: as above; details: S. bovis A-5169, unit assumed
[16] = tested on: STAPHYLOCOCCUS AUREUS 1775; assay: as above; details: S. aureus 1775, unit assumed
[17] = tested on: STREPTOCOCCUS PYOGENES 930; assay: as above; details: S. pyogenes 930, unit assumed
[18] = tested on: PSEUDOMONAS AERUGINOSA BMH10; assay: as above; details: P. aeruginosa BMH10, unit assumed
[19] = tested on: ENTEROBACTER AEROGENES ATCC 13048; assay: as above; details: E. aerogenes ATCC 13048, unit assumed
[20] = tested on: MYCOBACTERIUM SMEGMATIS ATCC 114; assay: as above; details: M. smegmatis ATCC 114, unit assumed
[21] = tested on: STAPHYLOCOCCUS AUREUS NCTC10649M; assay: as above; details: S. aureus NCTC10649M, unit assumed
[22] = tested on: STAPHYLOCOCCUS AUREUS ATCC 6538P; assay: as above; details: S. aureus ATCC 6538P, 35-37° C., 20 to 24 hours, unit assumed

SMILES | MIC [1] [µg/mL] | MIC [2] [µg/mL] | MIC [3] [µg/mL] | MIC (CANDIDA ALBICANS CCH 442) [µg/mL] | MIC [4] [µg/mL] | MIC [5] [µg/mL] | MIC (ESCHERICHIA COLI KNK 437) [µg/mL] | MIC [6] [µg/mL] | MIC (ESCHERICHIA COLI JUHL) [µg/mL] | MIC [7] [µg/mL] | MIC (ESCHERICHIA COLI DC-2) [µg/mL] | MIC [8] [µg/mL] | MIC [9] [µg/mL] | MIC [10] [µg/mL] | MIC (PSEUDOMONAS CEPACIA 296I) [µg/mL] | MIC [11] [µg/mL] | MIC (ESCHERICHIA COLI H560) [µg/mL] | MIC (ESCHERICHIA COLI SS) [µg/mL] | MIC [12] [µg/mL] | MIC (M[…] ATCC 4698) [µg/mL] | other results
CC[C@H]1OC(=O)[C@H](C)C(=O)[C@H](C)[C@@H](O[C@@H]2O[C@H](C)C[C@H](N(C)C)[C@H]2O)[C@](C)(OC)C[C@@H](C)C2=NC3CN(Cc4ccccc4)CC3N3C(=O)O[C@@]1(C)[C@H]3[C@H]2C (stereo partly shown) [Example 110] | > 100 | 0.2 (≈ 0.26 µM) | 0.39 (≈ 0.507 µM) | > 100 | > 100 | > 100 | 50 (≈ 65 µM) | > 100 | 50 (≈ 65 µM) | 0.2 (≈ 0.26 µM) | 25 (≈ 32.5 µM) | 1.56 (≈ 2.03 µM) | > 100 | 0.005 (≈ 0.0065 µM) | 50 (≈ 65 µM) | > 100 | 12.5 (≈ 16.3 µM) | 0.2 (≈ 0.26 µM) | > 100 | 0.78 (≈ 1.01 µM) | MIC (EN[…] ATCC 8043): 0.05 µg/mL (≈ 0.065 µM); MIC (M[…] ATCC 9341): 0.05 µg/mL (≈ 0.065 µM); MIC (STR[…] 508): 0.02 µg/mL (≈ 0.026 µM); MIC [13]: 0.2 µg/mL (≈ 0.26 µM); MIC [14]: 0.2 µg/mL (≈ 0.26 µM); MIC [15]: 0.02 µg/mL (≈ 0.026 µM); MIC [16]: > 100 µg/mL; MIC [17]: 50 µg/mL (≈ 65 µM); MIC [18]: 50 µg/mL (≈ 65 µM)
CCOC(=O)CCN1CC2N=C3C(C)CC(C)(OC)C(OC4OC(C)CC(N(C)C)C4O)C(C)C(=O)C(C)C(=O)OC(CC)C4(C)OC(=O)N(C2C1)C4C3C (stereo not shown) [Example 130] | > 100 | 6.2 (≈ 7.96 µM) | 1.56 (≈ 2 µM) | > 100 | > 100 | > 100 | > 100 | > 100 | > 100 | 1.56 (≈ 2 µM) | > 100 | 3.1 (≈ 3.98 µM) | > 100 | 0.1 (≈ 0.128 µM) | > 100 | > 100 | > 100 | 0.78 (≈ 1 µM) | > 100 | 0.78 (≈ 1 µM) | MIC [19]: > 100 µg/mL; MIC (EN[…] ATCC 8043): 0.2 µg/mL (≈ 0.257 µM); MIC (M[…] ATCC 9341): 0.2 µg/mL (≈ 0.257 µM); MIC (STR[…] 508): 0.1 µg/mL (≈ 0.128 µM); MIC [13]: 3.1 µg/mL (≈ 3.98 µM); MIC [14]: 0.78 µg/mL (≈ 1 µM); MIC [15]: 0.1 µg/mL (≈ 0.128 µM); MIC [20]: 25 µg/mL (≈ 32.1 µM); MIC [16]: > 100 µg/mL; MIC [17]: > 100 µg/mL; MIC [18]: > 100 µg/mL
CC[C@H]1OC(=O)[C@H](C)C(=O)[C@H](C)[C@@H](O[C@@H]2O[C@H](C)C[C@H](N(C)C)[C@H]2O)[C@](C)(OC)C[C@@H](C)C2=NCC(COC(=O)c3ccnc4ccccc34)N3C(=O)O[C@@]1(C)[C@H]3[C@H]2C (stereo partly shown) [Example 137] | 100 (≈ 122 µM) | 0.2 (≈ 0.243 µM) | 0.05 (≈ 0.0608 µM) | > 100 | 50 (≈ 60.8 µM) | 100 (≈ 122 µM) | 25 (≈ 30.4 µM) | 50 (≈ 60.8 µM) | 25 (≈ 30.4 µM) | 0.05 (≈ 0.0608 µM) | 12.5 (≈ 15.2 µM) | 0.2 (≈ 0.243 µM) | 100 (≈ 122 µM) | 0.01 (≈ 0.0122 µM) | 50 (≈ 60.8 µM) | 100 (≈ 122 µM) | 12.5 (≈ 15.2 µM) | 0.02 (≈ 0.0243 µM) | > 100 | 0.2 (≈ 0.243 µM) | MIC [21]: 0.05 µg/mL (≈ 0.0608 µM); MIC [22]: 0.02 µg/mL (≈ 0.0243 µM); MIC [19]: 100 µg/mL (≈ 122 µM); MIC (EN[…] ATCC 8043): 0.01 µg/mL (≈ 0.0122 µM); MIC (M[…] ATCC 9341): 0.01 µg/mL (≈ 0.0122 µM); MIC [13]: 0.05 µg/mL (≈ 0.0608 µM); MIC [14]: 0.02 µg/mL (≈ 0.0243 µM); MIC [20]: 0.2 µg/mL (≈ 0.243 µM); MIC [16]: > 100 µg/mL; MIC [17]: 6.2 µg/mL (≈ 7.53 µM); MIC [18]: 100 µg/mL (≈ 122 µM)
